The text below walks through data of article PMC11719512, “Exploring the Binding Mechanism of ADGRG2 Through Metadynamics and Biochemical Analysis” (International Journal of Molecular Sciences, 2024).

Test [1] deals with ADGRG2. The test is described as follows: cAMP accumulation assay (GloSensor) with wild-type ADGRG2 and mutants. The test is classed as cell-based. The following applies: HEK293, GloSensor; agonist IP15 alone, then with antagonist; mean ± SEM, n = 3. The protocol:
To assess the cAMP accumulation induced by receptor activation, HEK293 cells were transfected with plasmids for wild-type ADGRG2 or its mutants (ADGRG2-T624A, ADGRG2-C628A, ADGRG2-N668A, ADGRG2-Y758A, ADGRG2-K760A, ADGRG2-D768A, ADGRG2-N773A, ADGRG2-N775A, ADGRG2-N849A, ADGRG2-N860A) alongside the GloSensor plasmid or an empty vector (pcDNA3.1). Following a 24-h incubation at 37 °C with 5% CO2, the transfected cells were plated at a density of 4 × 10^4 per well in 96-well plates and incubated for an additional 24 h. The cells were then pre-treated with serum-free medium containing 5% (v/v) GloSensor cAMP reagent stock solution for 2 h. cAMP signals induced by IP15 were measured immediately after adding the agonists. Luminescence was recorded for at least 20 min per well, and the data were analyzed using sigmoidal dose–response functions in GraphPad Prism v.9.0.
On the technique in general: cAMP levels reflect the balance of adenylyl cyclase and phosphodiesterase activity.

The test system of test [2] is ADGRG2. The following applies: Stachel-derived peptides, earlier work; ref [8],[11]; cited from earlier work. The source says: Stachel (sequence: TSFGILLDLSRTSLP, with individual residues numbered from ss01 to ss15, where “ss” denotes Stachel sequence) is a key functional element of ADGRG2, playing a critical role in regulating the conformation and function of the receptor [8]. The Stachel sequence plays a pivotal role in receptor activation by mediating ligand binding and initiating the conformational changes required for signal transduction, highlighting its biological significance. In previous studies, the wild-type ADGRG2 Stachel sequence-derived peptidic agonist, VPM, was found t ... || Figure 1 Structural and binding analysis of ADGRG2 with agonists and antagonists. (A) Structure of ADGRG2, highlighting key domains involved in ligand binding. Identified agonists (DHEA, DHEAS, IP15) and antagonists (DOC, F601D, F601E) are labeled. […] (B) Schematic representation of metadynamics simulations and ligand binding assay conducted to investigate the binding mechanisms of antagonists F601D, F601E, and DOC to ADGRG2. (C) Structural representation of ADGRG2 in complex wi ...

As to IS 4PH GILLDLSRTSLP [IP15], the “IP15-induced cAMP accumulation, effect of ADGRG2 mutations” value with ADGRG2 [1] was “the effects of these mutations are specific to the antagonists and not due to disruption of interactions between receptor residues that contribute to agonist-induced activation”. The “agonistic activity / receptor state stabilised” value in the test with ADGRG2 [2] is reported as “superior agonistic activity”.
